Like-named read-outs stand apart in the source and are kept apart here.
How the values were obtained:
Type in all cases: cell-based
human TLR9 = target: T1, human TLR9 (Homo sapiens, UniProt Q9NR96); assay: TLR9 inhibition reporter assay (HEK-Blue cells, secreted embryonic alkaline phosphatase reporter)
T1 construct: host or cells: HEK-Blue cells (HEK293-derived reporter line)
T1 sequence (Q9NR96 26-1032): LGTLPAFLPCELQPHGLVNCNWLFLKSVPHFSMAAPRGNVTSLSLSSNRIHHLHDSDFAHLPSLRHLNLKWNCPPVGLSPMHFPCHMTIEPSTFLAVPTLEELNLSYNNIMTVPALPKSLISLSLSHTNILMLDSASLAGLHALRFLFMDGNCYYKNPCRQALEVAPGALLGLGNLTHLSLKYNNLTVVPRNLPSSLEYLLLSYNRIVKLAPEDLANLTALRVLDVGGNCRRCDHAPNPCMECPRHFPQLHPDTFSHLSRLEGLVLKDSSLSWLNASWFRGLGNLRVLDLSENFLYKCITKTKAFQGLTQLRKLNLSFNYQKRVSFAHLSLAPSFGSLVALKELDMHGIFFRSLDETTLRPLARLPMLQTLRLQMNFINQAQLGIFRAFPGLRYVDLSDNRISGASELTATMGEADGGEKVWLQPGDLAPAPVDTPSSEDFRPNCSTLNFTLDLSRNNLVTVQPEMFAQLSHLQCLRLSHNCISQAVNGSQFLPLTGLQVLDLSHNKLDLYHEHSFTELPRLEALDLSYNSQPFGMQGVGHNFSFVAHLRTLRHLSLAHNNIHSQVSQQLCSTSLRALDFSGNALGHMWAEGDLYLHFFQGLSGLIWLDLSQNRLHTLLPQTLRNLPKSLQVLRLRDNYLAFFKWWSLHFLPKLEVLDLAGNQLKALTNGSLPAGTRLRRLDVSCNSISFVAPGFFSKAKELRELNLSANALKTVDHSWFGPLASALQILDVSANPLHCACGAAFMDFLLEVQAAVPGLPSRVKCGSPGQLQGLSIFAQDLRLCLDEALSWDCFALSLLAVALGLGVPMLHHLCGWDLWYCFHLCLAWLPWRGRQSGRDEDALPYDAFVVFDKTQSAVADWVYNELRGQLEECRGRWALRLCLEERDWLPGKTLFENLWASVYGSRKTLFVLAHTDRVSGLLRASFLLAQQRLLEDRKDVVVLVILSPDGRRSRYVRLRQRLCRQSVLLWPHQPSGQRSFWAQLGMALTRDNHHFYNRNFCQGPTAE
In short: (§1)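 HEK-Blue cells expressing human TLR7, TLR8 or TLR9 with an NF-κB/AP-1-driven SEAP reporter were pretreated with compound (0.05 nM–50 μM final) for 30 min at room temperature. Agonists were gardiquimod 7.5 μM for TLR7, R848 15.9 μM for TLR8 and ODN2006 5 nM for TLR9. SEAP was read after 22 h at 37 °C, and inhibition was calculated relative to agonist-plus-DMSO and known-inhibitor controls.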

human TLR8 = target: T2, human TLR8 (Homo sapiens, UniProt Q9NR97); assay: TLR8 inhibition reporter assay (HEK-Blue cells, secreted embryonic alkaline phosphatase reporter); conditions: HEK-Blue cells overexpressing human TLR8, stimulated with R848 15.9 μM; read-out: TLR 8 IC50
T2 construct: host or cells: HEK-Blue cells (HEK293-derived reporter line)
T2 sequence (Q9NR97 27-1041): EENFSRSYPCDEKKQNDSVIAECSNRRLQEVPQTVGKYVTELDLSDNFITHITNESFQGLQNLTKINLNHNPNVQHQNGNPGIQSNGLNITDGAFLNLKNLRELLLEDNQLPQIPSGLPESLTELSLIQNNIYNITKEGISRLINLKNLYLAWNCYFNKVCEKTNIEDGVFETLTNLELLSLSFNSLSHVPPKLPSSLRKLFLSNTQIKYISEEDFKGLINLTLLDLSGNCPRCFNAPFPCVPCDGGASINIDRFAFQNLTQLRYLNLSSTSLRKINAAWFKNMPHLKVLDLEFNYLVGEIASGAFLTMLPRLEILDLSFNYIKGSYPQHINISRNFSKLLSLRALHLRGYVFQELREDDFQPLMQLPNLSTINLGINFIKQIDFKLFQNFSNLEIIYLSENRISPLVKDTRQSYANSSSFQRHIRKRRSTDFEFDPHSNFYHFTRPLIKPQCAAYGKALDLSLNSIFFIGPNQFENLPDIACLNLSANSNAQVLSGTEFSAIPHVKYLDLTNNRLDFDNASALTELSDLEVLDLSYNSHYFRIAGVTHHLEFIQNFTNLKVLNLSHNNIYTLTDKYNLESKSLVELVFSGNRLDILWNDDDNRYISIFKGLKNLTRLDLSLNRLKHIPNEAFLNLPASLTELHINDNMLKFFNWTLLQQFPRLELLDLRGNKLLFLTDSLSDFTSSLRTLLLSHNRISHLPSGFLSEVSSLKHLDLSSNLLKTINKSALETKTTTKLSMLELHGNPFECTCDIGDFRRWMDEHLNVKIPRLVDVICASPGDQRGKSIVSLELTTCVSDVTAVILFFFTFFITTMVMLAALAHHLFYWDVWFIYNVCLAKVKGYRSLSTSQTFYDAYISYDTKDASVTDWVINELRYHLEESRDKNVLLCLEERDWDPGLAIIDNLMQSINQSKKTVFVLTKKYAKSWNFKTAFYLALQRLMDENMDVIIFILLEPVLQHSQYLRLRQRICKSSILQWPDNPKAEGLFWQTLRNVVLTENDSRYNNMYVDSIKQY
In short: as §1

human TLR7 = target: T3, human TLR7 (Homo sapiens, UniProt Q9NYK1); assay: TLR7 inhibition reporter assay (HEK-Blue cells, secreted embryonic alkaline phosphatase reporter); conditions: HEK-Blue cells overexpressing human TLR7, stimulated with gardiquimod 7.5 μM; read-out: TLR 7 IC50
T3 construct: host or cells: HEK-Blue cells (HEK293-derived reporter line)
T3 sequence (Q9NYK1 27-1049): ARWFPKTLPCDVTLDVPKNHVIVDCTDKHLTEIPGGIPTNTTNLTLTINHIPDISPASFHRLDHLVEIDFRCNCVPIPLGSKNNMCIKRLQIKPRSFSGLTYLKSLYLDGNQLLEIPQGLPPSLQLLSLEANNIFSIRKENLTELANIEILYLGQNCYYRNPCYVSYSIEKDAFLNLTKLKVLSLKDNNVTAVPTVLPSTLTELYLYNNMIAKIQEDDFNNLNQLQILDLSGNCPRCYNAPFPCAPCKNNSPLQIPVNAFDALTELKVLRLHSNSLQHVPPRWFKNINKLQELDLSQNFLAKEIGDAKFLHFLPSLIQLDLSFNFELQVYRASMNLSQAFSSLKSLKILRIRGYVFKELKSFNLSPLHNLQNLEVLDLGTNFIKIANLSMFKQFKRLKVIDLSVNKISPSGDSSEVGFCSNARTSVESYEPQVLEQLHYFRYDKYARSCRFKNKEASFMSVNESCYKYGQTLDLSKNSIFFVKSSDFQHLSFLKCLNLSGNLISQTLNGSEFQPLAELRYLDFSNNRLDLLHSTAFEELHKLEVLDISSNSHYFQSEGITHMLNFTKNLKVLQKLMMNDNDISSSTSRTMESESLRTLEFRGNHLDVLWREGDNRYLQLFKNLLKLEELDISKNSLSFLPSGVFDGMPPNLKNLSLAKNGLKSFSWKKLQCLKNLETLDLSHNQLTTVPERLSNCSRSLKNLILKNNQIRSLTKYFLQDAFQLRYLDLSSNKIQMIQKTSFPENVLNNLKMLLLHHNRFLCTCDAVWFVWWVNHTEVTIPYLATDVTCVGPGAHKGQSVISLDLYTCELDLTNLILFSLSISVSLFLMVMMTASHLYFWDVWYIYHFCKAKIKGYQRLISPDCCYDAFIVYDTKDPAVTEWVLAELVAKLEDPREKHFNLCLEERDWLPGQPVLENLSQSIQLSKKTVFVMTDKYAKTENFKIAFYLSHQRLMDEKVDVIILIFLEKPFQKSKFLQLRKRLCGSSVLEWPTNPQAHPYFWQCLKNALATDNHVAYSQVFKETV
In short: as §1

[1] = HEK-Blue cells overexpressing human TLR9, stimulated with ODN2006 5 nM, read-out: TLR 9 IC50
[2] = HEK-Blue human TLR9 reporter cells
[3] = HEK-Blue cells overexpressing human TLR9, stimulated with ODN2006 5 nM, 22 hour incubation, reporter readout

SMILES | IC50 (human TLR9; [1]) | IC50 (human TLR9; [2]) | IC50 (human TLR8) | IC50 (human TLR7) | IC50 (human TLR9; [3]) | IC50 (human TLR9)
COc1cc(-c2nc3c(C)cc(C4CCN(C5CC6CCC(C5)N6C5CC5)CC4)cc3n2C)cn2ncnc12 (stereo not drawn) [Example 354, 6-(6-(1-(8-cyclopropyl-8-azabicyclo[3.2.1]octan-3-yl)piperidin-4-yl)-1,4-dimethyl-1H-benzo[d]imidazol-2-yl)-8-methoxy-[1,2,4]triazolo[1,5-a]pyridine] | 85 nM | 85 nM | 700 nM | 7500 nM | – | –
CS(=O)(=O)c1ccc(-c2nc3ccc(C4CCN(C5CCN(CC6COC6)CC5)CC4)c(F)c3[nH]2)cc1 [Example 183, 7-fluoro-2-(4-(methylsulfonyl)phenyl)-6-(1′-(oxetan-3-ylmethyl)-[1,4′-bipiperidin]-4-yl)-1H-benzo[d]imidazole] | 110 nM | – | > 50000 nM | > 50000 nM | – | 110 nM
Cc1cc(-c2cc(F)c(CN3CCC(N(C)C)CC3)c(F)c2)cc2c1nc(-c1ccc(S(C)(=O)=O)cc1)n2C [Example 392, 1-(4-(1,4-dimethyl-2-(4-(methylsulfonyl)phenyl)-1H-benzo[d]imidazol-6-yl)-2,6-difluorobenzyl)-N,N-dimethylpiperidin-4-amine] | 466 nM | – | 6400 nM | 10200 nM | 470 nM | –
COCCN1C2CCC1CC(N1CCC(c3cc(C)c4nc(-c5ccc(S(C)(=O)=O)cc5)n(C)c4c3)CC1)C2 (single isomer, unassigned) [Example 162, 6-(1-(8-(2-methoxyethyl)-8-azabicyclo[3.2.1]octan-3-yl)piperidin-4-yl)-1,4-dimethyl-2-(4-(methylsulfonyl)phenyl)-1H-benzo[d]imidazole] | 61 nM | – | > 25000 nM | 19900 nM | – | 61 nM
CCn1c(-c2ccc(OC)c(OC)c2)nc2ccc(C3CCN(C4CCN(C(C)C)CC4)CC3)cc21 (single isomer, unassigned) [Example 8, 2-(3,4-dimethoxyphenyl)-1-ethyl-6-(1′-isopropyl-[1,4′-bipiperidin]-4-yl)-1H-benzo[d]imidazole] | – | – | > 50000 nM | 2500 nM | 210 nM | –
COc1cc(-c2nc3c(C)cc(C4CCN(C5CC6CCC(C5)N6C5CC5)CC4)cc3[nH]2)cn2ncnc12 (stereo not drawn) [Example 360, 6-(6-(1-(8-cyclopropyl-8-azabicyclo[3.2.1]octan-3-yl)piperidin-4-yl)-4-methyl-1H-benzo[d]imidazol-2-yl)-8-methoxy-[1,2,4]triazolo[1,5-a]pyridine] | 9.7 nM | 9.7 nM | 26300 nM | 700 nM | – | –
CC(C)CN1CCC(N2CCC(c3ccc4nc(-c5ccc(S(C)(=O)=O)cc5)[nH]c4c3F)CC2)CC1 [Example 177, 7-fluoro-6-(1′-isobutyl-[1,4′-bipiperidin]-4-yl)-2-(4-(methylsulfonyl)phenyl)-1H-benzo[d]imidazole] | 120 nM | – | > 50000 nM | > 50000 nM | – | 120 nM

Now from value to compound:

IC50 (human TLR9; [1]) | IC50 (human TLR9; [2]) | IC50 (human TLR8) | IC50 (human TLR7) | IC50 (human TLR9; [3]) | IC50 (human TLR9) | SMILES
– | – | > 50000 nM | 1200 nM | 83 nM | – | Cc1cc(C2CCN(C3CCCN(C4CCC4)CC3)CC2)cc2c1nc(-c1ccc(S(C)(=O)=O)cc1)n2C (single isomer, unassigned) [Example 110, 6-(1-(1-cyclobutylazepan-4-yl)piperidin-4-yl)-1,4-dimethyl-2-(4-(methylsulfonyl)phenyl)-1H-benzo[d]imidazole]
71 nM | – | > 50000 nM | 19500 nM | – | 71 nM | Cn1c(-c2ccc(S(C)(=O)=O)cc2)nc2cc(C3CCN(C4CC5CCC(C4)N5C4CCC4)CC3)c(F)cc21 (stereo not drawn) [Example 251, 5-(1-(8-cyclobutyl-8-azabicyclo[3.2.1]octan-3-yl)piperidin-4-yl)-6-fluoro-1-methyl-2-(4-(methylsulfonyl)phenyl)-1H-benzo[d]imidazole]
599 nM | – | > 25000 nM | 6200 nM | – | 600 nM | COCCN1C2CCC1CC(N1CCC(c3cc(C)c4nc(-c5ccc(S(C)(=O)=O)cc5)n(C)c4c3)CC1)C2 (single isomer, unassigned) [Example 163, 6-(1-(8-(2-methoxyethyl)-8-azabicyclo[3.2.1]octan-3-yl)piperidin-4-yl)-1,4-dimethyl-2-(4-(methylsulfonyl)phenyl)-1H-benzo[d]imidazole]
12 nM | 12 nM | > 50000 nM | 2300 nM | – | – | CS(=O)(=O)c1ccc(-c2nc3c(F)cc(C4CCN(C5CC6CCC(C5)N6C5CCOCC5)CC4)cc3n2C2CC2)cc1 (stereo not drawn) [Example 328, 1-cyclopropyl-4-fluoro-2-(4-(methylsulfonyl)phenyl)-6-(1-(8-(tetrahydro-2H-pyran-4-yl)-8-azabicyclo[3.2.1]octan-3-yl)piperidin-4-yl)-1H-benzo[d]imidazole]

Reference: patent US12492188B2, “1H-benzo[D]imidazole derivatives as TLR9 inhibitors for the treatment of fibrosis” (BRISTOL-MYERS SQUIBB COMPANY, priority 2020, dated 2025)
